Source: US20210236840A1, “COMBINED SONODYNAMIC AND PHOTODYNAMIC THERAPY TO TREAT DEEP SEATED CANCER AND OTHER HYPERPOLIFERATIVE DISEASE AND ULTRASOUND AND LIGHT TRIGGERED RELEASE OF NEAR INFRARED PHOTOSENSITIZERS AND CHEMOTHERAPY AGENTS FROM POLYACRLAMIDE BASED NANOPARTICLES” (Photolitec, LLC, priority 2020, published 2021)

Columns and labels:
[1] = system: U87 Glioma xenografts; assay: In vivo PDT and PDT-SDT combination response; conditions: PDT alone; SCID mice bearing U87 Glioma xenografts
[2] = system: U87 tumors; assay: Long-term tumor cure by Photobac-PDT; type: in vivo, SCID mice; conditions: laser light at 787 nm; for CR: 60 days
Experimental: Analysis of anticancer efficacy of Photobac was injected in tumor-bearing mice and treated with the laser light at 787 nm. Tumor cure was monitored for 60 days post-laser treatment. […] Photobac is being developed for the treatment of glioblastoma by Photolitec, LLC (a spin-off of RPCI) has received an ORPHAN DRUG STATUS from FDA.
Long-term tumor cure by Photobac-PDT on treating nude mice (female) bearing U87 tumors (shoulder) at variable drug doses. The tumors were exposed with light (787 nm, 135 J/cm^2, 75 mW/cm^2) at 24 h post injection. Comparative long-term cure of Photobac-PDT treatment in both and female SCID mice bearing U87 tumors (shoulder) under similar treatment parameters (drug dose: 0.75 μmol/kg; light dose: 135 J/cm^2, 75 mW/cm^2.

[3] = system: Colon 26 tumors and U87 tumors; assay: Photobac-PDT vascular shutdown, CD31 staining of tumor sections; type: in vivo, BALB/C mice; nude mice; conditions: 787 nm, 135 J/cm2, 75 mW/cm2 at 24 h post-injection; 0.25 μmol/kg (Colon 26) or 0.75 μmol/kg (U87)

## CCCCCCOC(C)c1c(C)c2cc3nc(c4c5[nH]c(cc6nc(cc1[nH]2)C(C)=C6CC)c(C)c5C(=O)C4)[C@@H](CCC(=O)O)[C@@H]3C (stereo partly drawn) [HPPH, 2-(1-Hexyloxyethyl)-2-devinyl pyropheophorbide-a]
[1]
  complete response: 37%

## CCCCOC(C)C1=C(C)c2cc3nc(c4c5[nH]c(cc6[nH]c(cc1n2)[C@H](C)[C@H]6CC)c(C)c5C(=O)N(CCCC)C4=O)[C@@H](CCC(=O)OC)[C@@H]3C (stereo partly drawn) [Photobac, bacteriopurpurinimide]
[2]; female SCID mice
  mice tumor free up to 60 days: 4/5
  CR: 80%
[2]; male mice
  mice tumor free up to 60 days: 4/7
  CR: 60%
[3]
  vascular effect of PDT: causes vascular shutdown
